We go through 1 compound from publication PMC12400753 (Respiratory Research, 2025).

Where two headings read alike, the source gives them in different places.

Experiment [1] concerns normal, non-fibrotic human PCLS. The experiment in a line: Fibrotic marker mRNA (qPCR) in normal PCLS. As to conditions: n=5 donors. The class given is cell-based. The procedure:
Precision cut lung slices were obtained from Anabios (San Diego, CA) and collected in accordance with their ethics policy (https://anabios.com/ethics-statement/). Donor demographics are available in Additional File 1. Slices were thawed as per vendor instructions. Briefly, PCLS were thawed at 37 °C then transferred to media consisting of DMEM/F12, Antibiotic-Antimytotic, and Penicillin-Streptomycin. PCLS were gently rinsed then transferred to a larger dish. A small tissue sample was excised with a scalpel for immunohistochemistry and qPCR characterization. […] Final concentration of DMSO was 0.1%. Media and compound were replaced every two days for a total of 6 days. At the end of the experiment, slices were collected and snap frozen. Quantitative PCR: RNA was extracted using RNEasy columns. RNA was reverse transcribed using qScript XLT per manufacturer’s instructions. Genes of interest were assessed by qPCR using Perfecta SYBR Green on a StepOne Plus Thermocycler (ABI). Parameters were as follows: 95 °C 30 s, then 45 cycles of 95 °C for 5 s and 60 °C for 30 s.
A general note: Real-time PCR tracks product formation cycle by cycle.

The target in experiment [2] is T1, LPAR1 (Mus musculus, UniProt P61793).
T1 construct: from tissue; host or cells: lung of female C57BL6/N mice, dosed in vivo
T1 sequence (P61793 whole entry): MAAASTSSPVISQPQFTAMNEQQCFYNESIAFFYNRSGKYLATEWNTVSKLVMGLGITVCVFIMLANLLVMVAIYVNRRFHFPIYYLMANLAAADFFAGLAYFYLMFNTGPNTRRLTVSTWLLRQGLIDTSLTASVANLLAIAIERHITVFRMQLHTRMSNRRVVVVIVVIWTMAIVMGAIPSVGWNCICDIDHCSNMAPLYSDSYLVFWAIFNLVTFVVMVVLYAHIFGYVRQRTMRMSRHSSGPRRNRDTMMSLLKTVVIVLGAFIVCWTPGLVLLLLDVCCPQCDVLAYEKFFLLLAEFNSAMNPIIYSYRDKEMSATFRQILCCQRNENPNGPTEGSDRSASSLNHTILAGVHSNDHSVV
The experiment in a line: In vivo lung receptor occupancy with [3H]-PIPE-497. Particulars: for EC50: read-out: lung receptor occupancy EC50 (plasma concentration). The procedure:
[^3H]-PIPE-497 was diluted to 9.8 µCi/mL in saline and administered via IV injection to the lateral tail vein at a dose volume of 5 mL/kg. Five minutes following radioligand administration, mice were euthanized by decapitation, trunk blood collected into K3EDTA tubes and stored on wet ice, each lung rapidly dissected, weighed and placed into a 5 mL polypropylene tube. Tissues were diluted with a 10x volume of ice-cold binding buffer (50 mM HEPES, 100 mM NaCl2, 2 mM EDTA). Lungs were then homogenized (25,000 rpm, 7 s). 300 µL of homogenate was filtered over Whatman GF/B filters (GE Life Sciences, Marlborough, MA) which had been pre-wetted with 0.5% polyethyleneimine prior to loading onto the Hoefer vacuum manifold. Filters were washed once by applying 3 mL ice-cold wash buffer (50 mM Tris, 154 mM NaCl, 0.05% Tween 20) to the manifold for a total of 2 washes. […] Washed filters were removed from the manifold and air dried. Following completion of filtration of all samples, uncapped scintillation vials were placed into an oven (~ 40–50 °C) for ~ 30 min to ensure complete drying. Five (5) mL Ultima Gold F scintillation fluid was added to each tube. Tubes were capped, gently agitated, and dark equilibrated for 30 min then read on a Beckman LS6500 liquid scintillation counter for tritium disntegrations per minute measurements. After all samples were collected, dissected, and filtered, the previously collected blood in K3EDTA tubes was centrifuged (1450 x g, 10 min, 4 °C) to separate plasma.

The test system of experiment [3] is mouse alveolar macrophages. The experiment in a line: IL-1β release of alveolar macrophages from orally dosed mice, ex vivo LPS. The class given is in vivo. As to conditions: 3 mg/kg oral, 24 h before isolation; with and without ex vivo LPS. On the procedure: 1.5 mL DPBS was injected into lungs and BAL fluid aspirated. Cells were plated in at 40,000 cells/well and stimulated first with 500 ng/mL LPS for 4 h then and 1 µM LPA for an additional hour at 37 °C. Plates were spun down and supernatant analyzed for IL-1β by ELISA.

The mark [4] stands for this setting: once per day for 4 days (steady state), 3 h after last dose.

Regarding `COc1ccc(NC(=O)N(c2ccccc2C(C)C)C2CCC(C(=O)O)CC2)c(OC(F)F)n1` (stereo not drawn) [PIPE-791], the “expression of fibrotic marker transcripts (COL1A1, COL3A1, SERPINE1, TIMP1, LPAR1)” value in experiment [1] is given as “did not alter the expression of any of the fibrotic marker transcripts tested”. Also, the “increase in potency when dosed 3 versus 24 h prior to radioligand” value in experiment [2] (in vivo receptor occupancy) was 20 fold. Further, the figures for the “lung receptor occupancy ED50” value in experiment [2] (setting [4]), in experiment [2] (single oral dose 3 h prior to radioligand) and in experiment [2] (single oral dose 24 h prior to radioligand) were 0.1 mg/kg, 0.5 mg/kg and 0.09 mg/kg, respectively. Further, the EC50 stood at 18 nM in experiment [2] (setting [4]); 79 nM in experiment [2] (single oral dose, 3 h); 4 nM in experiment [2] (single oral dose, 24 h). Moreover, the EC90 in experiment [2] (once per day for 4 days (steady state), read-out: lung receptor occupancy EC90 (total plasma concentration)) is 50 nM. For the same compound, the “radiotracer displacement (LPAR1 receptor occupancy) in lung” value in experiment [2] (single oral dose, 3 h post dose) was “Significant radiotracer displacement (LPAR1 receptor occupancy) was observed at 3 mg/kg”; in experiment [2] (single oral dose, 24 h post dose), “significant occupancy was observed at both 0.3 and 3 mg/kg”. Also, the “IL-1β levels of isolated alveolar macrophages” value in experiment [3] is “comparable to baseline”.
